According to US6010478A, “Trans-mucosal particle delivery” (PowderJect Research Limited, priority 1995, dated 2000):
Counter-ions that a name gives are not always drawn. Like-named read-outs stand apart in the source and are kept apart here.

How the values were obtained:
[1] = Serum testosterone pharmacokinetics after transmucosal (OralJect needleless syringe) or subcutaneous delivery; format: in vivo, female New Zealand White rabbit; conditions: for Cmax: 2 mg
Protocol: Testosterone (Sigma Chemicals) was milled and sieved into a particle size range (approximately 50-100 μm) suitable for transmucosal delivery from a needleless syringe using standard stainless steel mesh sieves. Female New Zealand White rabbit subjects weighing between 2.2-2.8 kg were used and allowed food and water ad libitum. The rabbits (n=8) were randomly assigned to one of two treatment groups. The first treatment group received testosterone (2.0 mg dose) as a suspension in 35% polyvinylpyrrolidone C-30 in water (6 mg/g testosterone concentration) via subcutaneous injection. The second treatment group received testosterone (2.0 mg dose of testosterone particles ranging from 53-75 μm) as two 1.0 mg transmucosal administrations from an OralJect™ needleless syringe device abutted against the cheek mucosa.
Whole blood (1.0 ml) was taken at times 0, 0.5, 1, 2, 4, 6, 8, 12, 24 and 48 hours, the serum aspirated and assayed for testosterone by radioimmunoassay (DPC). The OralJect™ device is a prototype device of the present invention that is actuated by helium at 40 bar.

[2] = test system: oral mucosa; test: Visual assessment of delivery sites for damage or irritation of mucosal tissues; format: in vivo, human; conditions: 3 mg particles 38-53 μm, needleless syringe, 24-48 hours after delivery, 14 subjects
Protocol: A randomized, double-blind, negatively controlled study was carried out in normal, healthy human subjects as follows. Initially, a single 3 mg dose of lignocaine HCL particles sized between 38 and 53 μm was delivered from a needleless syringe constructed in accordance with the invention. The lignocaine was delivered to the oral mucosa adjacent to the number 12 and 22 lateral incisors in 14 trial subjects. The delivery sites were then visually assessed for evidence of damage or irritation to the mucosal tissues.

[3] = test system: oral mucosa; design: species or system human; conditions: in vivo
Protocol: In a second study, a single 3.0 mg dose of lignocaine HCL particles (as above) was delivered using a needleless syringe, and a single 0.2 mL dose of 2% lignocaine HCL was delivered via needle-syringe injection. Pain associated with the administration of each treatment was scored in all 14 subjects using a 100 mm visual analogue scale immediately after each treatment, wherein 100% indicates a painful treatment, and 0% indicates a pain-free treatment. The needleless syringe employed in the study was operated using 40 bar helium driving gas to expel anaesthetic particles from a flexible, eversible dome-shaped membrane comprised of a 400 μm, 6 mm polyurethane film.

[4] = test system: oral mucosa; test: Local anaesthesia: pain response to probing of treated oral mucosa, visual analogue scale; format: in vivo, human; conditions: 3.0 mg particles by needleless syringe
Protocol: A randomized, double-blind study was then carried out as follows. Treatments were given to 14 subjects over the course of three visits. The treatments provided to the subjects in each visit were either a single 3.0 mg dose of Lignocaine HCL particles from the above-described needleless syringe device, or 0.0 mg (as a blinded negative control). Accordingly, treatments provided over the course of the three visits were either: two actual (3.0 mg) doses of the anaesthetic particles and one placebo; or two placebos and one actual (3.0 mg) dose. Pain stimulus was provided by probing oral mucosa with the back of a 27G dental needle, wherein the probe sequence was a probe on an untreated area of the mucosa, and then a probe on the treated area of the mucosa 1 minute post delivery. Again, the pain associated with the probe of the untreated and treated areas was scored on visual analogue scales using the above scoring methods immediately after each probe.

Row | Structure (SMILES) | Cmax comparison between treatments ([1]; OralJect transmucosal vs subcutaneous, 2.0 mg, rabbit) | pharmacokinetic profile, transmucosal vs subcutaneous ([1]; OralJect transmucosal vs subcutaneous, rabbit) | % BA (% bioavailability) ([1]; OralJect transmucosal, 2.0 mg, rabbit) | time of second minor peak of serum testosterone ([1]; OralJect transmucosal, post administration, possible depot effect) | Cmax ([1]; rabbit, serum, OralJect transmucosal (cheek mucosa), 2 x 1.0 mg particles 53-75 μm, helium 40 bar, rabbit, read-out: Cmax (mean maximum serum concentration)) | Cmax ([1]; rabbit, serum, sc, subcutaneous injection, 2.0 mg suspension in 35% polyvinylpyrrolidone C-30 in water, rabbit, read-out: Cmax (mean maximum serum concentration)) | Cmax ([1]; rabbit, serum, sc, subcutaneous injection, 2.0 mg, rabbit, read-out: Cmax range) | Tmax ([1]; rabbit, serum, OralJect transmucosal, 2.0 mg, in all animals) | tissue reaction at delivery site [2] | pain associated with administration (mean VAS score) [3] | level of local anaesthesia relative to placebo treatments ([4]; 1 minute post delivery) | pain response score to probe of treated area (mean VAS) ([4]; probe 1 minute post delivery, untreated probe 55.6%, placebo 30.6%)
1 | C[C@]12CC[C@H]3[C@@H](CCC4=CC(=O)CC[C@@]43C)[C@@H]1CC[C@@H]2O [testosterone] | not significantly different between treatments although there was a tendency for it to be lower following OralJect™ administration | markedly different from that achieved following subcutaneous administration | ~48.3% | 12 h | 25.5 ± 3.5 nM | 34.8 ± 6.9 nM | 26.9 to 55.2 nM | 30 min | – | – | – | –
2 | CCN(CC)CC(=O)Nc1c(C)cccc1C [lignocaine HCL, lignocaine hydrochloride] | – | – | – | – | – | – | – | – | no evidence of any tissue reaction was observed | 49.9% | superior level of local anaesthesia relative to the placebo treatments | 15.0%
